Test results from patent US7887818B2, “Neospora caninum vaccine” (The United States of America as represented by the …, priority 2008, dated 2011).

Experiments:
NcSRS2 [1] = assay: ELISA of NcSRS2-specific antibody levels in sera of vaccinated mice; type: in vivo, N. caninum; conditions: mouse sera 1:100, both trials, 3 weeks after challenge
Method: (§1) Adult female BALB/c mice (10-12 weeks old; 15 per group; National Cancer Institute, Frederick, Md.) were immunized s.c. in the lower back with a dose of 20 μg of rNcCyP, rNcSRS2, or 20 μg each of NcCyP and NcSRS2 formulated with adjuvants ImmuMax-SR® (a chitosan-based oil emulsion formulation [U.S. Pat. No. 5,980,912; Nov. 9, 1999]; (Repros Therapeutics Inc., formerly Zonagen Inc., TX) and CpG (ImmunoEasy, Qiagen) (Groups 1, 2, and 3). Control groups received non-recombinant antigen formulated with adjuvants ImmuMax-SR® and CpG (Group 4) or RPMI 1640 alone (Groups 5 and 6). The mice were given a secondary immunization 3 weeks later with the same preparation used in the primary immunization. All mice except for those in Group 6 were challenged s.c. with 10^5 N. caninum tachyzoites (NC1 isolate) in 50 μl RPMI 1640 three weeks following the secondary immunization. Group 6 mice received RPMI 1640 only and remained uninfected throughout the experiment (Table 1). […]
(§2) Antigen-specific antibody levels of vaccinated mice were determined by ELISA using purified rNcCyP or rNcSRS2. […] The wells were incubated with alkaline phosphatase-labeled goat anti-mouse IgG (H+L ch. sp., 1:5,000, Sigma) for 1 hr at RT, followed by addition of p-nitrophenyl phosphate substrate (Sigma), and reading on a microtiter plate reader at […].

NcSRS2 [2] = assay: Western blot detection of anti-NcSRS2 antibodies in mouse sera (NcAg as antigen); type: in vivo, N. caninum
Method: as §1, with “1). All mice were euthanized 3 weeks after challenge infection, and brain tissue and blood were collected at necropsy and processed for Neospora DNA and serum antibody analysis as described (Liddell et al. 1999b. Int J. Parasitol. 29: 1583-1587). Animal use and care of the present study was approved by the BARC Animal Use and Care Committee in accordance with appropriate regulations.” for “1).”

[3] = tested on: N. caninum tachyzoites (NC1 isolate); assay: Vaccination and N. caninum tachyzoite challenge; N. caninum-specific Nc5 PCR on brain tissue; type: in vivo, BALB/c mice; conditions: for Positive/Total = number of mice brain positive for N. caninum DNA/total mice in the group: 3 weeks after s.c. challenge with 10^5 tachyzoites; for level of protection against challenge infection compared to control groups: vs non-recombinant- or non-vaccinated groups
Method: (§3) Adult female BALB/c mice (10-12 weeks old; 15 per group; National Cancer Institute, Frederick, Md.) were immunized s.c. in the lower back with a dose of 20 μg of rNcCyP, rNcSRS2, or 20 μg each of NcCyP and NcSRS2 formulated with adjuvants ImmuMax-SR® (a chitosan-based oil emulsion formulation [U.S. Pat. No. 5,980,912; Nov. 9, 1999]; (Repros Therapeutics Inc., formerly Zonagen Inc., TX) and CpG (ImmunoEasy, Qiagen) (Groups 1, 2, and 3). Control groups received non-recombinant antigen formulated with adjuvants ImmuMax-SR® and CpG (Group 4) or RPMI 1640 alone (Groups 5 and 6). The mice were given a secondary immunization 3 weeks later with the same preparation used in the primary immunization. All mice except for those in Group 6 were challenged s.c. with 10^5 N. caninum tachyzoites (NC1 isolate) in 50 μl RPMI 1640 three weeks following the secondary immunization. Group 6 mice received RPMI 1640 only and remained uninfected throughout the experiment (Table 1). All mice were euthanized 3 weeks after challenge infection, and brain tissue and blood were collected at necropsy and processed for Neospora DNA and serum antibody analysis as described (Liddell et al. 1999b. Int J. Parasitol. 29: 1583-1587). Animal use and care of the present study was approved by the BARC Animal Use and Care Committee in accordance with appropriate regulations.
Mouse brain tissue was extracted for DNA using standard procedures (Jenkins et al. 2004, supra). The presence of N. caninum in brain tissue was determined by N. caninum-specific Nc5 PCR using Np6/Np21 primers (Muller et al. 1996. J. Clin. Microbiol. 34: 2850-2852; Yamage et al. 1996. J. Parasitol. 82: 272-279) and an internal standard to control for false negative reactions as described (Jenkins et al. 2004a, supra; Liddell et al. 1999a, supra).

NcCyP [4] = assay: ELISA of NcCyP-specific antibody levels in sera of vaccinated mice; type: in vivo, N. caninum; conditions: mouse sera 1:100, both trials, 3 weeks after challenge
Method: as §1, §2

NcCyP [5] = assay: Western blot detection of anti-NcCyP antibodies in mouse sera (NcAg as antigen); type: in vivo, N. caninum; conditions: for percent of mice with detectable antibodies against NcCyP: overall data from both trials
Method: as §3
The presence of specific antibodies to NcCyP or NcSRS2 was also confirmed with Western blotting using NcAg as antigen (FIG. 5). In brief, N. caninum tachyzoite protein (equivalent to 10^6 tachyzoites/blot strip) were fractionated by SDS-PAGE under reducing conditions and transblotted to Immobilon membrane (Millipore) in a semi-dry blot apparatus (BioRad). Low-range molecular weight markers (BioRad) were electrophoresed in a separate well to allow for Mr estimation of native N. caninum tachyzoite protein. After blotting, the membranes were cut into vertical strips, treated with blocking agent (PBS-2% non-fat dry milk) for 30 min at RT, and then incubated for 2 hr at RT with a 1:100 dilution of serum from individual mice in each treatment group. The blot strips were then incubated for 1 hr with biotinylated goat anti-mouse IgG (H+L ch. sp., 1:1000 dilution, Sigma Chemical Co.), followed by alkaline-phosphatase-labeled avidin (1:25,000 dilution, Sigma), and developed with NBT-BCIP substrate (Pierce). The blots were washed 3 times between each incubation step with PBS-0.05% Tween 20 (Sigma).

## Group 1: recombinant Neospora caninum cyclophilin protein (SEQ ID NO:2), 20 μg formulated with adjuvants ImmuMax-SR and CpG
NcSRS2 [1]
  levels of NcSRS2-specific antibodies (ELISA) compared to other groups: higher (p<0.05)
NcSRS2 [2]; Trial I
  number of mice with detectable anti-NcSRS2 Ab in total mice of the group: 0/14
NcSRS2 [2]; Trial II
  number of mice with detectable anti-NcSRS2 Ab in total mice of the group: 0/15
[3]; Trial I
  Positive/Total = number of mice brain positive for N. caninum DNA/total mice in the group: 1/15
[3]; Trial II
  Positive/Total = number of mice brain positive for N. caninum DNA/total mice in the group: 3/15
[3]; average of both trials
  average percent of mice brain-positive for N. caninum: 13%
[3]; for both trials, (mice brain negative for Nc DNA/total)x100, formulated with ImmuMax-SR/CpG
  percent protection: 80-93%
[3]; mean positive/total from trials I and II
  Positive/Total (Mean): 2/15
[3]; range of trials I and II
  percent of mice brain-positive for N. caninum, range over the trials: 7-20%
[3]; listed as NcCyP
  level of protection against challenge infection compared to control groups: significantly higher protection
[3]; listed as rNcCyP
  level of protection against challenge infection compared to control groups: higher (p<0.001) levels of protection
NcCyP [4]
  levels of NcCyP-specific antibodies (ELISA) compared to other groups: significantly higher (p<0.01)
NcCyP [5]; Trial I
  number of mice with detectable anti-NcCyP Ab in total mice of the group: 11/14^3
NcCyP [5]; Trial II
  number of mice with detectable anti-NcCyP Ab in total mice of the group: 12/15
NcCyP [5]; listed as NcCyP
  percent of mice with detectable antibodies against NcCyP: about 77%
NcCyP [5]; listed as rNcCyP
  percent of mice with detectable antibodies against NcCyP: 78%
